From patent US20100331320A1, “CYCLIC INHIBITORS OF 11BETA-HYDROXYSTEROID DEHYDROGENASE 1” (Vitae Pharmaceuticals, Inc., priority 2009, published 2010)

What was measured:
[1] = Slurry experiment on stability of the crystalline form (water suspension, XRPD); assay type: physicochemical; conditions: for polymorphic change after slurry in water: suspended in water for up to seven days, XRPD of the filtration residue; for stability of the anhydrous state: during the measurement by XRPD (30 minutes)
Procedure: In this study, a suspension of the monohydrate of Example 48 was suspended in water for up to seven days. After the treatment, the mixtures were filtered and an x-ray powder diffraction of the filtration residue was measured.
In this study, a suspension of the monohydrate of Example 75 was suspended in water for up to seven days. After the treatment, the mixtures were filtered and an x-ray powder diffraction of the filtration residue was measured.

11β-HSD1 = target: T1, 11β-HSD1 (Homo sapiens, UniProt P28845); assay: biochemical; conditions: read-out: Average % control inhibition at 100 nM
T1 construct: detecting cortisol generated from cortisterone by human liver microsomes
Procedure: Briefly, compounds were incubated for 1 hour at 37° C. in Tris buffer (20 mM tris, 5 mM EDTA, pH 6.0) containing NADPH (200 μM) and cortisone (80 nM). Cortisol generated in the reaction was then detected with a competitive immunoassay, involving two HTRF conjugates: cortisol linked to XL665 and anti-cortisol antibody labeled with Europium cryptate. The incubation period for detection reaction was typically 2 hours. […] The ratio of the two emission signals was then calculated (Em665*10000/Em615). […] Each assay also contained a calibration curve with cortisol to transform the fluorescent data into cortisol concentrations. Percent inhibition of each compound was determined relative to the carbenoxolone signal.

CYP3A4 = CYP3A4 (Homo sapiens, UniProt P08684); assay: Biological Test Example 6: CYP3A4 Inhibition ([N-methyl-14C]-Erythromycin N-demethylation); assay type: in vitro ADME; conditions: recombinant CYP3A4, probe [N-methyl-14C]-Erythromycin (50 μM)
CYP3A4, sequence (P08684 whole entry): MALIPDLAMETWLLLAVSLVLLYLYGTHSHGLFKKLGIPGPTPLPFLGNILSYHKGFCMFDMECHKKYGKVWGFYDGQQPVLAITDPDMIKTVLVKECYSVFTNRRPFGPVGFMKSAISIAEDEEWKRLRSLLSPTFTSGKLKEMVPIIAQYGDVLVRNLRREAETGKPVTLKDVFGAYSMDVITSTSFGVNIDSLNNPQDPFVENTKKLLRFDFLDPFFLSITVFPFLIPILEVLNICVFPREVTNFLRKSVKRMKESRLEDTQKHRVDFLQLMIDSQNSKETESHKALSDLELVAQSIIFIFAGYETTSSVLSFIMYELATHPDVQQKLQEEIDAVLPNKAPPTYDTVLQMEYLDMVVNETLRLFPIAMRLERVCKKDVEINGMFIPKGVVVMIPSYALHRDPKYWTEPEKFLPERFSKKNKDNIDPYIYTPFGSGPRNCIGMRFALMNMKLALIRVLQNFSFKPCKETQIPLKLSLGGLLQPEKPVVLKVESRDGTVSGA

T1 sequence (P28845 whole entry): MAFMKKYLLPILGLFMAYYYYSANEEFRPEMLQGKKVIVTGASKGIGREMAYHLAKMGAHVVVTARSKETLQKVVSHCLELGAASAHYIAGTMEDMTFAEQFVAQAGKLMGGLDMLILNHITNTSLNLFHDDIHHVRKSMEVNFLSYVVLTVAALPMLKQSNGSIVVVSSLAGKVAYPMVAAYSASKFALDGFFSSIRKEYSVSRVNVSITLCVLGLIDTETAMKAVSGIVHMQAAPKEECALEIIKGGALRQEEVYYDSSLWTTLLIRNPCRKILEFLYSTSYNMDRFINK

Row | SMILES | percent inhibition at 0.1 µM (11β-HSD1) | also measured
1 | C[C@@H](c1ccc(-c2ccn(C3CC3)c(=O)c2)cc1)N1CC[C@](CC(C)(C)O)(c2ccccc2)OC1=O [monohydrate of Example 75, 3-{(S)-1-[4-(1-Cyclopropyl-2-oxo-1,2-dihydro-pyridin-4-yl)-phenyl]-ethyl}-(S)-6-(2-hydroxy-2-methyl-propyl)-6-phenyl-[1,3]oxazinan-2-one] | – | polymorphic change after slurry in water [1]: No polymorphic change was observed
2 | C[C@@H](c1ccc(-c2cc(=O)n(C)cc2F)cc1)N1CC[C@](CC(C)(C)O)(c2ccccc2)OC1=O [Example 79, 3-{(S)-1-[4-(5-Fluoro-1-methyl-2-oxo-1,2-dihydro-pyridin-4-yl)-phenyl]-ethyl}-(S)-6-(2-hydroxy-2-methyl-propyl)-6-phenyl-[1,3]oxazinan-2-one] | 15% | –
3 | COCC(C)Cn1ccc(-c2ccc([C@H](C)N3CC[C@](CC(C)(C)O)(c4ccccc4)OC3=O)cc2)cc1=O (stereo partly drawn) [Example 81, (S)-6-(2-Hydroxy-2-methyl-propyl)-3-((S)-1-{4-[1-(3-methoxy-2-methyl-propyl)-2-oxo-1,2-dihydro-pyridin-4-yl]-phenyl}-ethyl)-6-phenyl-[1,3]oxazinan-2-one] | 11% | –
4 | C[C@@H](c1ccc(-c2ccn(CC(C)(C)O)c(=O)c2)cc1)N1CC[C@](CC(C)(C)O)(c2ccccc2)OC1=O [Example 80, (S)-6-(2-Hydroxy-2-methyl-propyl)-3-((S)-1-{4-[1-(2-hydroxy-2-methyl-propyl)-2-oxo-1,2-dihydro-pyridin-4-yl]-phenyl}-ethyl)-6-phenyl-[1,3]oxazinan-2-one] | 37% | –
5 | CC(CO)Cn1ccc(-c2ccc([C@H](C)N3CC[C@](CC(C)(C)O)(c4ccccc4)OC3=O)cc2)cc1=O (stereo partly drawn) [Example 82, (S)-6-(2-Hydroxy-2-methyl-propyl)-3-((S)-1-{4-[1-(3-hydroxy-2-methyl-propyl)-2-oxo-1,2-dihydro-pyridin-4-yl]-phenyl}-ethyl)-6-phenyl-[1,3]oxazinan-2-one] | -12% | –
6 | C[C@@H](c1ccc(-c2ccn(C)c(=O)c2)cc1)N1CC[C@](CC(C)(C)O)(c2ccccc2)OC1=O [monohydrate of Example 48, (S)-6-(2-hydroxy-2-methylpropyl)-3-((S)-1-(4-(1-methyl-2-oxo-1,2-dihydropyridin-4-yl)phenyl)ethyl)-6-phenyl-1,3-oxazinan-2-one] | – | polymorphic change after slurry in water [1]: No polymorphic change was observed
7 | C[C@@H](c1ccc(-c2ccn(C3CC3)c(=O)c2)cc1)N1CC[C@](CC(C)(C)O)(c2ccccc2)OC1=O [anhydrous form of Example 75, 3-{(S)-1-[4-(1-Cyclopropyl-2-oxo-1,2-dihydro-pyridin-4-yl)-phenyl]-ethyl}-(S)-6-(2-hydroxy-2-methyl-propyl)-6-phenyl-[1,3]oxazinan-2-one] | – | stability of the anhydrous state [1]: did not remain in the anhydrous state
8 | COC(C)(C)Cn1ccc(-c2ccc([C@H](C)N3CC[C@](CC(C)(C)O)(c4ccccc4)OC3=O)cc2)cc1=O [Example 83, (S)-6-(2-Hydroxy-2-methyl-propyl)-3-(1-{4-[1-(2-methoxy-2-methyl-propyl)-2-oxo-1,2-dihydro-pyridin-4-yl]-phenyl}-ethyl)-6-phenyl-[1,3]oxazinan-2-one] | 54% | IC50 (CYP3A4): > 50 µM
9 | C[C@@H](c1ccc(-c2ccn(C)c(=O)c2)cc1)N1CC[C@](CC(C)(C)O)(c2ccccc2)OC1=O [anhydrous form of Example 48, (S)-6-(2-hydroxy-2-methylpropyl)-3-((S)-1-(4-(1-methyl-2-oxo-1,2-dihydropyridin-4-yl)phenyl)ethyl)-6-phenyl-1,3-oxazinan-2-one] | – | stability of the anhydrous state [1]: did not remain in the anhydrous state
10 | C[C@@H](c1ccc(-c2ccn(CC(C)(C)CO)c(=O)c2)cc1)N1CC[C@](CC(C)(C)O)(c2ccccc2)OC1=O [Example 90, 3-((S)-1-{4-[1-(3-Hydroxy-2,2-dimethyl-propyl)-2-oxo-1,2-dihydro-pyridin-4-yl]-phenyl}-ethyl)-(S)-6-(2-hydroxy-2-methyl-propyl)-6-phenyl-[1,3]oxazinan-2-one] | 4% | –
